Experimental data taken from ChEMBL document CHEMBL3867487, “Discovery of 2'-α-C-Methyl-2'-β-C-fluorouridine Phosphoramidate Prodrugs as Inhibitors of Hepatitis C Virus” (ACS Med Chem Lett, 2016).

Tests used:
Hepatitis C virus [1] = assay: Antiviral activity against HCV infected in human Huh7 cells assessed as reduction in viral RNA replication after 4 days; format: functional, cell-based, Hepacivirus hominis; conditions: Huh-7, 96 h
[2] = Cytotoxicity against human Huh7.5.1 cells after 48 hrs by luciferase reporter gene assay; format: toxicity, cell-based, Huh-7
Hepatitis C virus [3] = assay: Antiviral activity against HCV JFH-1 infected in human HuH7.5.1 cells after 48 hrs by luciferase reporter gene assay; format: functional, cell-based, Hepacivirus hominis; conditions: genotype 2a JFH-1, Huh-7, 48 h

| Compound | EC50 (Hepatitis C virus [1]) | CC50 at 48 h [2] | EC50 (Hepatitis C virus [3]) | EC90 (Hepatitis C virus [1]) |
| --- | --- | --- | --- | --- |
| C[C@@]1(F)[C@H](O)[C@@H](CO)O[C@H]1n1ccc(N)nc1=O | 4.5 µM | – | – | – |
| CC(C)OC(=O)[C@@H](Cc1ccccc1)NP(=O)(OC[C@H]1O[C@@H](n2ccc(=O)[nH]c2=O)[C@@](C)(F)[C@@H]1O)Oc1ccccc1 (some centres undefined) | – | > 100 µM | 35.3 µM | – |
| CC(C)OC(=O)[C@@H](NP(=O)(OC[C@H]1O[C@@H](n2ccc(=O)[nH]c2=O)[C@@](C)(F)[C@@H]1O)Oc1ccccc1)C(C)C (some centres undefined) | – | > 100 µM | > 50 µM | – |
| CC(C)OC(=O)[C@H](C)NP(=O)(OC[C@H]1O[C@@H](n2ccc(=O)[nH]c2=O)[C@@](C)(F)[C@@H]1O)Oc1ccccc1 (some centres undefined) | – | > 100 µM | 34.2 µM | – |
| CC(C)OC(=O)CNP(=O)(OC[C@H]1O[C@@H](n2ccc(=O)[nH]c2=O)[C@@](C)(F)[C@@H]1O)Oc1ccccc1 (some centres undefined) | – | > 100 µM | 22.9 µM | – |
| CSCC[C@H](NP(=O)(OC[C@H]1O[C@@H](n2ccc(=O)[nH]c2=O)[C@@](C)(F)[C@@H]1O)Oc1ccccc1)C(=O)OC(C)C (some centres undefined) | – | > 100 µM | 2.24 µM | – |
| CC(C)OC(=O)[C@H](Cc1c[nH]c2ccccc12)NP(=O)(OC[C@H]1O[C@@H](n2ccc(=O)[nH]c2=O)[C@@](C)(F)[C@@H]1O)Oc1ccccc1 (some centres undefined) | – | > 100 µM | > 50 µM | – |
| CC(C)OC(=O)[C@H](Cc1ccccc1)NP(=O)(OC[C@H]1O[C@@H](n2ccc(=O)[nH]c2=O)[C@@](C)(F)[C@@H]1O)Oc1ccccc1 (some centres undefined) | – | > 100 µM | 33.3 µM | – |
| CCCCOC(=O)[C@H](C)NP(=O)(OC[C@H]1O[C@@H](n2ccc(=O)[nH]c2=O)[C@@](C)(F)[C@@H]1O)Oc1ccccc1 (some centres undefined) | – | > 100 µM | > 50 µM | – |
| CSCC[C@@H](NP(=O)(OC[C@H]1O[C@@H](n2ccc(=O)[nH]c2=O)[C@@](C)(F)[C@@H]1O)Oc1ccccc1)C(=O)OC(C)C (some centres undefined) | – | > 100 µM | > 50 µM | – |
| C[C@]1(F)[C@H](O)[C@@H](CO)O[C@H]1n1ccc(=O)[nH]c1=O | – | > 100 µM | 14.7 µM | – |
| CC(C)OC(=O)[C@@H](Cc1c[nH]c2ccccc12)NP(=O)(OC[C@H]1O[C@@H](n2ccc(=O)[nH]c2=O)[C@@](C)(F)[C@@H]1O)Oc1ccccc1 (some centres undefined) | – | > 100 µM | 0.88 µM | – |
| C[C@H](NP(=O)(OC[C@H]1O[C@@H](n2ccc(=O)[nH]c2=O)[C@@](C)(F)[C@@H]1O)Oc1ccccc1)C(=O)OCc1ccccc1 (some centres undefined) | – | > 100 µM | > 50 µM | – |
| CCOC(=O)[C@H](C)NP(=O)(OC[C@H]1O[C@@H](n2ccc(=O)[nH]c2=O)[C@@](C)(F)[C@@H]1O)Oc1ccccc1 (some centres undefined) | – | > 100 µM | > 50 µM | – |
| CCCCCOC(=O)[C@H](C)NP(=O)(OC[C@H]1O[C@@H](n2ccc(=O)[nH]c2=O)[C@@](C)(F)[C@@H]1O)Oc1ccccc1 (some centres undefined) | – | > 100 µM | > 50 µM | – |
| CCCCCCOC(=O)[C@H](C)NP(=O)(OC[C@H]1O[C@@H](n2ccc(=O)[nH]c2=O)[C@@](C)(F)[C@@H]1O)Oc1ccccc1 (some centres undefined) | – | > 100 µM | > 50 µM | – |
| CC(C)OC(=O)[C@H](NP(=O)(OC[C@H]1O[C@@H](n2ccc(=O)[nH]c2=O)[C@@](C)(F)[C@@H]1O)Oc1ccccc1)C(C)C (some centres undefined) | – | > 100 µM | 1.82 µM | – |
| COC(=O)[C@H](C)NP(=O)(OC[C@H]1O[C@@H](n2ccc(=O)[nH]c2=O)[C@@](C)(F)[C@@H]1O)Oc1ccccc1 (some centres undefined) | – | > 100 µM | > 50 µM | – |
| CC(C)OC(=O)[C@@H](C)NP(=O)(OC[C@H]1O[C@@H](n2ccc(=O)[nH]c2=O)[C@@](C)(F)[C@@H]1O)Oc1ccccc1 (some centres undefined) | – | > 100 µM | 34.3 µM | – |
| C[C@H](NP(=O)(OC[C@H]1O[C@@H](n2ccc(=O)[nH]c2=O)[C@@](C)(F)[C@@H]1O)Oc1ccccc1)C(=O)OC1CCCCC1 (some centres undefined) | – | > 100 µM | > 50 µM | – |
| CCCOC(=O)[C@H](C)NP(=O)(OC[C@H]1O[C@@H](n2ccc(=O)[nH]c2=O)[C@@](C)(F)[C@@H]1O)Oc1ccccc1 (some centres undefined) | – | > 100 µM | > 50 µM | – |
| CC(C)OC(=O)[C@H](C)N[P@](=O)(OC[C@H]1O[C@@H](n2ccc(=O)[nH]c2=O)[C@](C)(F)[C@@H]1O)Oc1ccccc1 [SOFOSBUVIR] | – | > 100 µM | 0.12 µM | 0.42 µM |
